Experiment [1] deals with antioxidant response element. The following applies: cited from earlier work.
Experiment [2] concerns Nannochloris sp. Description: Microplate assay: growth (absorbance 680 nm) and intracellular lipids (Nile Red fluorescence). In kind it is cell-based. The following applies: for Absorbance (percent increase) / Nile Red percent increase: 200 nM, initial microplate screen, relative to control; for Nile Red Fluorescence % Increase: Nannochloris sp., initial screening, p<0.05.
Experiment [3] deals with Nannochloropsis salina. The following applies: N. salina, compounds tested at 20 μM, initial screening, p<0.05.
Description: (§1) Stock cultures were aerated by stirring with bubbling air (homemade manifold with Petco air pump, 2-4% CO2) or by orbital shaking (Thermo Scientific MAXQ 2000) at a constant speed of 150 rpm at 22±3° C. with a 16:8 hour light/dark cycle. Stocks were kept at stationary phase for use. Algae were prepared as dictated by culture center.
(§2) Compounds were selected based on reported biological activity in non-microalgae organisms. To ensure that compounds retained their quality, they were stored under advised conditions after purchasing from the manufacturer. Solutions of all assay compounds were prepared as 10 mM stock solutions by dissolving in DMSO in 2-dram amber vials and then stored in darkness −20° C. 96-well PCR plates were used to create a stock plate layout that was then transferred to the algae microplates. A plate map was used to distribute each compound to a well based on molecule name, collection number, and CAS number. For 20 μM and 200 nM assay plates, 10 mM compound stock in DMSO was diluted into plate maps of 5 mM and 50 μM assay stocks, respectively.
(§3) All materials for assay experiments were autoclaved before each use to maintain axenic algae cultures. Algae species were checked for homogeneity using a TS-100 light microscope (Nikon, Japan). […] Diluted stock solutions were made immediately prior to use for consistency and optimal plate growth. Cell density was measured on a Thermo Scientific Genesys 10S Vis Spectrophotometer (ThermoFisher, San Jose), using a 1 mL cuvette at 680 nm.
(§4) Plates were originally run in triplicate, before replicates were increased to quadruplicate, along with a separate control plate to compare growth. Due to extensive evaporation in exterior wells over time, our unique algae plate layout was designed to use the 60 interior wells out of 96 wells for the experiment. The 36 outer wells were filled with Millipore water and media to prevent evaporation and edge effects in the inner algae wells, as well as serve as blanks. The 60 wells with algae contained a total volume of 251 μL (100 μL of media+DMSO compound stock +150 μL dilute algae stock). For 20 μM and 200 nM assay plates, 10 mM compound stock in DMSO is diluted into plate maps of 5 mM and 50 μM assay stocks, respectively. […] Plates were parafilmed during growth to limit the amount of evaporation that can occur. Plates were numbered, and numerically ordered to ensure they got the same shaker space.
(§5) The shakers are kept at a constant shaking of 150 rpm. Ambient temperature is 22±3° C.
For experiment [4], the system named is Phaeodactylum tricornutum. Description: Microplate assay: growth (absorbance 680 nm) and intracellular lipids (Nile Red fluorescence). The format is cell-based.
Description: as §1, §2, §3, §4, §5
Experiment [5] concerns the target CDC25 phosphatase 25A (Homo sapiens, UniProt P30304). The following applies: cited from earlier work.
Experiment [6] concerns the target T1, CDC25 phosphatase 25C-cat (Homo sapiens, UniProt P30307).
T1 construct: 25C-cat
Conditions: cited from earlier work.

The target of experiment [7] is CDC25 phosphatase 25C (Homo sapiens, UniProt P30307). Conditions: cited from earlier work.
The target of experiment [8] is CDK6 (Homo sapiens, UniProt Q00534). The following applies: cited from earlier work.
For experiment [9], the target named is arachidonate 15-LO (Homo sapiens, UniProt P16050). The following applies: cited from earlier work.
For experiment [10], the system named is Nannochloropsis sp. Nature of the experiment: Microplate assay: increase of lipid production (Table 17). Conditions: best conc. 2.4 nM. In kind it is cell-based. The source says:
We also tested a collection with more antioxidants, kinase inhibitors, and further compounds for increase of lipid production with N. salina, P. tricornutum, N. oculata, and Nannochloropsis sp.

The mark [11] stands for this setting: 200 nM, initial microplate screen, relative to control.

Sequence of arachidonate 15-LO (P16050 whole entry): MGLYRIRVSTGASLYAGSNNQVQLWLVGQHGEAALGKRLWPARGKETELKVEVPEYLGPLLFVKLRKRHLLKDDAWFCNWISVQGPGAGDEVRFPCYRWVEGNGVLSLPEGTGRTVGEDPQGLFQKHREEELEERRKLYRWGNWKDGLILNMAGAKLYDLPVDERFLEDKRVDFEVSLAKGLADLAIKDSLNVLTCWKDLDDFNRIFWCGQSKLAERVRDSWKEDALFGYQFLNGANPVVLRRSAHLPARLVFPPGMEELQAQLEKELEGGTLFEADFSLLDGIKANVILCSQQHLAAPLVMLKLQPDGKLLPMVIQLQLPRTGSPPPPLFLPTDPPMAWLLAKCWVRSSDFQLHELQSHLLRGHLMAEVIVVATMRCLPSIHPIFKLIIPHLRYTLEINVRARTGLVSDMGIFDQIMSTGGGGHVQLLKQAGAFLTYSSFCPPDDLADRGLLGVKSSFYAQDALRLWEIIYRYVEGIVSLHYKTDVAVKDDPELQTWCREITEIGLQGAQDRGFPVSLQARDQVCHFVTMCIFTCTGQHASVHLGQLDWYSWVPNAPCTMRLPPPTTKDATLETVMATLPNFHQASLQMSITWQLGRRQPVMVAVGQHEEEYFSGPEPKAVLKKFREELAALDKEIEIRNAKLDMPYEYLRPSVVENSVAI
Sequence of CDK6 (Q00534 whole entry, looked up): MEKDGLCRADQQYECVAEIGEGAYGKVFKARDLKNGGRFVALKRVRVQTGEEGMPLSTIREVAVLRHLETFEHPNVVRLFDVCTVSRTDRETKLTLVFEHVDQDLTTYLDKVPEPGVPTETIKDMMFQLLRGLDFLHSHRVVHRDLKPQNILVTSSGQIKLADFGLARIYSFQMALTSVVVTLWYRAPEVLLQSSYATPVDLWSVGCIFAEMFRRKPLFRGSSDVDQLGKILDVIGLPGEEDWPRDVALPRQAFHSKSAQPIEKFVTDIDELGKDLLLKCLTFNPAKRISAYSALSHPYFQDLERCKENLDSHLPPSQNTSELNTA
Sequence of CDC25 phosphatase 25A (P30304 whole entry): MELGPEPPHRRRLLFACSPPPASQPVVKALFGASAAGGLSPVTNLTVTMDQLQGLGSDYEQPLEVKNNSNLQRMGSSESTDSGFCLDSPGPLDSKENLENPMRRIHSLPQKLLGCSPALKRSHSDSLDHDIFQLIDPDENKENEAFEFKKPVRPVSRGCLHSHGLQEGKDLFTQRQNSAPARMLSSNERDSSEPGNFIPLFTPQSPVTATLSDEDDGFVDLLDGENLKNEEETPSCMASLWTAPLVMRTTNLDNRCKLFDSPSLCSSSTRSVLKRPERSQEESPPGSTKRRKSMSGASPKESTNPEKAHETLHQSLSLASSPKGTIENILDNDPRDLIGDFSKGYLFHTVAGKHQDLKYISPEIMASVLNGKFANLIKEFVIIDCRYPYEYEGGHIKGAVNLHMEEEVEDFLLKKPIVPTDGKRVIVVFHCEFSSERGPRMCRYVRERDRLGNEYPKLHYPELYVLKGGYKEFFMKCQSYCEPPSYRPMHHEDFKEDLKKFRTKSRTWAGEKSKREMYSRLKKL
Sequence of CDC25 phosphatase 25C (P30307 whole entry): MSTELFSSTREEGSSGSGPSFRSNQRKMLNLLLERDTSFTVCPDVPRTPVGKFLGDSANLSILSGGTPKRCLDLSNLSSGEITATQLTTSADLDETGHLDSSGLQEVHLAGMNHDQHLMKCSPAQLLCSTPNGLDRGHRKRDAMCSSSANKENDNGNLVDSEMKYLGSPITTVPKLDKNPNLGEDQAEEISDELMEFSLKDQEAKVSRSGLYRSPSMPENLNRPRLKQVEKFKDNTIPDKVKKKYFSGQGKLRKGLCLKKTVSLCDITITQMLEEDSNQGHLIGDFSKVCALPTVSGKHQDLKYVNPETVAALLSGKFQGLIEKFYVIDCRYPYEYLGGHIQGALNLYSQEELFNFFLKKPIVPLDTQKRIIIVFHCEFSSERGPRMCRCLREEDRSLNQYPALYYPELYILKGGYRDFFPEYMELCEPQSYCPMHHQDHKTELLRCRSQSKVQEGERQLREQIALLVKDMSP
T1 sequence (P30307 321-428 limits assumed): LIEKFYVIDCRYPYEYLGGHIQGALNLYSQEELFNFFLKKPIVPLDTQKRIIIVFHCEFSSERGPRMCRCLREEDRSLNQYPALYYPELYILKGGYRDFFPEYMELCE

On to `CC1=CC(=O)CC(C)(C)[C@@]1(O)/C=C/C(C)=C\C(=O)O` [Abscisic acid, (2Z,4E)-5-[(1S)-1-hydroxy-2,6,6-trimethyl-4-oxocyclohex-2-en-1-yl]-3-methylpenta-2,4-dienoic acid], for which, in [1], the “agonist of antioxidant response element at” value is reported as “element at 37.6 μM)”. Besides, the “Absorbance (percent increase)” value is −2.6% in experiment [2] and −1.2% in experiment [4] (setting [11]). In addition, the “Nile Red percent increase” value in experiment [2] is given as 61.6%; in experiment [4] (setting [11]) it was 87.0%. The “Nile Red Fluorescence % Increase” value in experiment [2] (compounds tested at 200 nM) is on record as 90.8%; in experiment [3] it was 34.5%; in experiment [4] (P. tricornutum, compounds tested at 200 nM, initial screening, p<0.05), 87.0%.

One may read the IC50 as the concentration needed to halve the response being measured. Regarding “6-Chloro-7-(2-morpholin-4-yl-ethylamino)-quinoline-5,8-dione [CDC25 Phosphatase Inhibitor I]”, the results for the half-maximal inhibitory concentration (IC50) in [5], in experiment [6] and in experiment [7] were 2.4 µM, 4.6 µM and 5.4 µM, respectively.

`CCNc1cc(N[C@H]2CC[C@H](O)CC2)nc(Nc2ccc3c(ccn3Cc3ccccc3)c2)n1` [CDK4/6 Inhibitor 4, trans-4-((6-(ethylamino)-2-((1-(phenylmethyl)-1H-indol-5-yl)amino)-4-pyrimidinyl)amino)-cyclohexanol]: in experiment [4] (P. tricornutum, 10 μM, DMSO delivery, added t=day 0), the “% Increase based on Nile Red Fluorescence Intensity” value came to 50%. Moreover, the IC50 in experiment [8] was 5.6 µM.

On to `CC(=O)Nc1ccc(O)cc1` [Acetaminophen, N-(4-hydroxyphenyl)ethanamide], for which, in experiment [2], the “Absorbance (percent increase)” value is recorded as −6.7% and the “Nile Red percent increase” value is reported as 68.9%. For the same compound, the “Nile Red Fluorescence % Increase” value in experiment [2] (compounds tested at 20 μM) amounted to 89.7%. In experiment [9], the IC50 is 28.4 µM. Besides, the “% Inc” value in experiment [10] came out at 13.11%.

Values taken from patent publication US8778643B2, “Methods for increasing lipid levels and producing triacylglycerols in algae” (priority 2012, dated 2014).
